Measured values published in ChEMBL document CHEMBL2331197, “Alstoniaphyllines A-C, unusual nitrogenous derivatives from the bark of Alstonia macrophylla” (J Nat Prod, 2013).
Active and inactive are the calls of the source. The calls are words filed in the database; no cut-off is given here.

These molecules were tested on KB (assay: Cytotoxicity against human KB cells by resazurin assay).
Format: functional, cell-based
In the case of `CC(=O)C1=COC[C@@H]2[C@H]1C[C@H]1[C@H](O)C[C@@H]2N1C` [ANGUSTIMALINE], the IC50 is reported as > 100 µM.
In the case of `C[C@@H]1OC[C@@H]2[C@@H](C[C@H]3c4c(c5ccccc5n4C)C[C@@H]2N3C)[C@@H]1C=O` [Talcarpine], the IC50 is reported as > 100 µM.
With `CC1=C(C=O)[C@@H]2C[C@H]3c4c(c5ccccc5n4C)C[C@@H]([C@@H]2CO1)N3C` [ALSTONERINAL] the IC50 was > 100 µM.
Work on `Cc1c2ccncc2c(C)c2c1[nH]c1ccccc12` [ELLIPTECINE] yielded an IC50 of 4.87 µM.
`C/C=C1/CN2CC[C@@]34c5cc(OC)ccc5N(C)[C@H]3[C@@H]2C[C@H]1[C@@H]4C(=O)OC` was tested, and the IC50 was > 100 µM.
With `CC(=O)C1=COC[C@H]2[C@@H]3C[C@@]4(C(=O)N(C)c5ccccc54)[C@H](C[C@@H]12)N3` [ALSTONAL] the IC50 was > 100 µM.
In the case of `COc1ccc2c(c1)N(C)C(=O)[C@@]21C[C@@H]2N[C@H]1C[C@H]1C(C(C)=O)=COC[C@@H]21`, the IC50 is reported as > 100 µM.
`C[C@@H]1OC[C@@H]2[C@@H](C[C@H]3C(=O)C[C@@H]2N3C)[C@@H]1CO` [ALSTONIAPHYLLINE B] was tested, and the IC50 was > 100 µM.
With `C[C@@H]1OC[C@@H]2[C@@H](C[C@H]3C4=Nc5ccccc5C4=C[C@@H]2[N+]3(C)[O-])[C@@H]1CO` (stereo not given in full) [ALSTONIAPHYLLINE C] the IC50 was > 100 µM.
In the case of `COc1cccc2c1C(=O)c1c(O)c3c(c(O)c1C2=O)C[C@@](O)(C(=O)CO)C[C@@H]3O[C@H]1C[C@H](N)[C@H](O)[C@H](C)O1` [DOXORUBICIN], the IC50 is reported as 0.55 µM.
For `CC(=O)C1=COC[C@@H]2[C@H]1C[C@H]1C(=O)C[C@@H]2N1C` [ALSTONIAPHYLLINE A], the IC50 was > 100 µM.
With `C[C@@H]1OC[C@@H]2[C@@H](C[C@H]3c4c(c5ccccc5n4C)C[C@@H]2N3C)[C@H]1CO` [MACROCARPINE B] the IC50 was > 100 µM.
`COc1ccc2c3c(n(C)c2c1)[C@@H]1C[C@H]2C(C=O)=C(C)OC[C@H]2[C@H](C3)N1C` [ALSTOPHYLLAL] was tested, and the IC50 was > 100 µM.

These molecules were tested on Plasmodium falciparum (assay: Antimalarial activity against multidrug-resistant Plasmodium falciparum K1 by [3H]-hypoxanthine incorporation assay).
Format: functional, organism-based
`CC(=O)C1=COC[C@H]2[C@@H]3C[C@@]4(C(=O)N(C)c5ccccc54)[C@H](C[C@@H]12)N3` [ALSTONAL] gave an IC50 of 7.6 µM.
`COc1ccc2c(c1)N(C)C(=O)[C@@]21C[C@@H]2N[C@H]1C[C@H]1C(C(C)=O)=COC[C@@H]21` was tested, and the Activity was “Active”.
